Data: patent US20090011424A1, “Cancer-suppressing agents” (Tokyo Medical and Dental University, priority 2005, published 2009)

Assays:
[1] = test system: IMR32 cells; assay: soft agar colony formation after gene introduction; format: cell-based, human; details: 3 weeks, 500 μg/ml G418, vs empty vector
Procedure: (§1) Adherence to solid matter has been known as an example of a difference between properties of normal cells and those of cancer cells under culture conditions. In other words, it is necessary for normal cells to adhere to solid matter for cell proliferation (anchorage dependence). When normal cells are cultured in a soft agar medium (about 0.33%), they can not proliferate while floating in such medium. However, many cancer cells lack anchorage dependence so that they can proliferate in a soft agar medium. Since floating cancer cells cannot move in a soft agar medium, a single cancer cell is repeatedly divided such that the divided cells form a colony in 1 to 3 weeks time. Since there is a correlation between the ability of the cell to form a soft agar colony and the implanted tumor forming ability, the degree of such ability has been widely used as an index of malignancy (Shin, S. I., et al., Proc. Natl. Acad. Sci. USA 72, 4435, 1975). A full-length NR1I2 cDNA was inserted into pCMV-Tag3 vector (Stratagene) in which an myc peptide can be added to the amino terminal of an inserted gene (PCMV-Tag3-NR1I2). In addition, we already have discovered that a fusion product of a herpes-virus-derived VP16 protein and an NR1I2 protein has stronger transcriptional activity than that of an NR1I2 protein alone. […] Then, the number of colonies was counted (FIGS. 8A and 8B).

[2] = test system: SMS-KAN cells; assay: soft agar colony formation after gene introduction; format: cell-based, human; details: 3 weeks, 500 μg/ml G418, vs empty vector
Procedure: as §1

What does the source list for “NR1I2 gene: human-derived gene, nuclear receptor subfamily 1, group I, member 2 (pregnane X receptor, PXR), nucleotide sequence SEQ ID NO: 1”?
number of colonies [1]: significantly reduced; number of colonies [2]: significantly reduced
